Values quoted from earlier work in patent publication US20040157796A1 (priority 2002, published 2004).

Tests used:
[1] = target: COX-1 (Homo sapiens, UniProt P23219); details: background statement
[2] = background statement

COX-1, sequence (P23219 24-599): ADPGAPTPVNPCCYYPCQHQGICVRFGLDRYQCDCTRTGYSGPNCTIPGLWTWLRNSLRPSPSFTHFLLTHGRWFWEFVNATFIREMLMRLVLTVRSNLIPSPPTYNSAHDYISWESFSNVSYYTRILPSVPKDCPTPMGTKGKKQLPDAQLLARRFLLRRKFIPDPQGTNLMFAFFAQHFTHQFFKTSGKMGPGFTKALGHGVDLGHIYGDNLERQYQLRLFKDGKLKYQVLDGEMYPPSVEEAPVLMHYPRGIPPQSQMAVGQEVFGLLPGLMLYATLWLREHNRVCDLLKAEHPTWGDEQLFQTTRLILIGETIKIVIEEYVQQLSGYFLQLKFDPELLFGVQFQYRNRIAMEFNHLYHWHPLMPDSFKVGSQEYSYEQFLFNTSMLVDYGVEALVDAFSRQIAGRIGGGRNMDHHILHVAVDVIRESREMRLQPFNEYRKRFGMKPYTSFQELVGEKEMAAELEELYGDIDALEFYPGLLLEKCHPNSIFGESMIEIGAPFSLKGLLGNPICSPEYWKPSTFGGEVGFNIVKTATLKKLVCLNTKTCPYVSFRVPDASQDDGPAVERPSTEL

Row | Structure (SMILES) | in vitro inhibitory activity against COX-1 [1] | solubility in water [2]
1 | Cc1onc(-c2ccccc2)c1-c1ccc(S(N)(=O)=O)cc1 [valdecoxib] | weak inhibitor | extremely low solubility
2 | CCC(=O)NS(=O)(=O)c1ccc(-c2c(-c3ccccc3)noc2C)cc1 [Parecoxib, N-[[4-(5-methyl-3-phenylisoxazol-4-yl)phenyl]sulfonyl]propanamide] | weak in vitro inhibitory activity | much more soluble
